Assay results: patent publication US12636371B2, “Chemically coupled transporter for low-hydrophobicity bioactive drugs into the central nervous system” (Skybio LLC, priority 2021, dated 2026)

Legend:
[1] = tested on: HEK293/Cytochrome C-tGFP cell line; experiment: Apoptosis assay, Cytochrome C-tGFP localization by confocal microscopy; type: cell-based; conditions: 200 μM, 24 h
Excerpt: Identification of genes linked to familiar forms of PD have uncovered many molecular pathways involved in neurodegeneration. One of such genes is PTEN-induced kinase 1 (PINK1), a mitochondrial serine/threonine-protein kinase that protects cells from stress-induced mitochondrial dysfunction. […] In fact, PINK1 is the second most frequent causative gene in early-onset PD, where mutations in this gene cause an autosomal recessive form of the disease. Frequent missense or truncating mutations of PINK1 are implicated in the pathogenesis of PARK6 (familial type 6 of PD). […] Therefore, the release of Cytochrome C from damaged mitochondria is considered a central event in apoptotic signaling. To characterize the ability of Pegasus (D9) to induce mitochondrial damage and apoptosis, as assayed by the release of Cytochrome C from mitochondria, a transgenic Cytochrome C-tGFP HEK293 cell line was used (INNOPROT #P30801) (Goldstein J C, Muñoz-Pinedo C, Ricci J E, et al. Cytochrome C is released in a single step during apoptosis. Cell Death Differ 2005; 12(5): 453-62).
The effect of Pegasus on the localization and distribution of mitochondrial Cytochrome C-tGFP was visualized by confocal microscopy after incubation with 200 μM of D9 for 24 hs in the HEK293/Cytochrome C-tGFP cell line (INNOPROT #P30801). Images were acquired in a ZEISS LSM800 Confocal Microscope.

Bv2 cells = experiment: MTT cytotoxicity assay in microglial Bv2 cell line; type: cell-based, murine; conditions: 10 and 20 μM, 24 h
Protocol: The ability of D9 to induce cytotoxicity was also studied using the MTT assay on Bv2 cells, a microglial cell line derived from the C57/BL6 murine model. For this, Bv2 cells were incubated in the presence and in the absence of different Pegasus concentrations at 37° C. Bv2 cells retain the morphology and functional characteristics of microglia and are therefore a widespread microglial model. These cells are immortalized by v-raf/v-myc carrying J2 retrovirus, and express nuclear v-myc and the cytoplasmic v-raf oncogene products as well as the env gp70 antigen at the surface level.
Bv2 cells were seeded in Poly-L-Lysine-treated 96-well plates at 15,000 cells/well and in 100 μl of DMEM supplemented with 10% Fetal Bovine Serum (FBS) and 1% Antibiotics/Antimycotics (PSA) and incubated for 24 h at 37° C. and 5% CO2. Afterwards, cells were treated with a 25 μl aliquot of a 50 µM and 100 μM Pegasus solution (final concentration in well 10 μM and 20 μM) and incubated for 24 h. To determine cell viability, the colorimetric MTT metabolic activity assay was used as previously described by Mosmann. All experiments were performed in sextuplicate, and the relative cell viability (%) was expressed as a percentage relative to the untreated control condition.

D2 dopamine receptor = D2 dopamine receptor (Homo sapiens, UniProt P14416); experiment: D2 receptor agonist assay, cAMP Nomad biosensor, U2OS_cAMPNmd_FP650_D2 cells; type: cell-based; conditions: 24 h, 10 serial 1:3 dilutions from 30 μM, triplicate; read-out: EC50, D2 receptor activation
Protocol: HEK_cAMPNmd_FP650_D1 and U2OS_cAMPNmd_FP650_D2 cells were seeded at a density of 30.000 and 20.000 cells/well, respectively, in 96-well plates. Cells were maintained in DMEM or DMEM-F12 medium supplemented with 10% FBS during 24 h at 37° C. in a humidified 5% CO2 atmosphere.
Cells were then incubated for 24 h.
To detect Nomad biosensor activation, the assay medium was removed and replaced by […] of DPBS with calcium and magnesium. […] In U2OS_cAMPNmd_FP650_D2 cells, images were acquired using the CellInsight CX7 HCS Platform, and the number of fluorescent vesicles per cell was quantified with the HCS Studio Cell Analysis Software.
The effect of the compounds in the regulation of D1 or D2 receptors' activation was analyzed measuring the CAMP signaling using the Nomad biosensor-based assay.
This same experiment was carried out in the U2OS_cAMPNmd_FP650_D2 cell line (FIG. 10). The effect of the compounds was analyzed quantifying the number of fluorescent vesicles in the cytoplasm of the cells using the HCS Studio Cell Analysis Software.

D1 dopamine receptor = D1 dopamine receptor (Homo sapiens, UniProt P21728); experiment: D1 receptor agonist assay, cAMP Nomad biosensor, HEK_cAMPNmd_FP650_D1 cells
Protocol: To detect Nomad biosensor activation, the assay medium was removed and replaced by 100 ml of DPBS with calcium and magnesium. […] In U2OS_cAMPNmd_FP650_D2 cells, images were acquired using the CellInsight CX7 HCS Platform, and the number of fluorescent vesicles per cell was quantified with the HCS Studio Cell Analysis Software.

E. coli DH5α = experiment: Antibiotic activity by disc diffusion assay (MIC); type: cell-based; conditions: disc diffusion, two-fold serial dilutions from 2 mg/ml, LB solid medium, overnight 37° C.
Protocol: In order to examine the antibiotic activity of the compounds synthesized in Example 1, an assay was performed using E. coli DH5α (Gram(−)), as a sensitive, indicator strain.
The antibacterial activities of test compounds were evaluated using the disc diffusion method (Kavanagh, F. Dilution methods of antibiotic assays in Analytical Microbiology. 1963; Pomares M F, Vincent P A, Farías R N, Salomón R A. Protective action of ppGpp in microcin J25-sensitive strains. J Bacteriol. 2008-190:4328-34). Briefly, filter-paper discs impregnated with 10 μl of two-fold serial dilutions of the test compounds, and were placed onto LB solid medium Petri dishes. Then, aliquots (50 μl) of an E. coli DH5α culture in stationary phase were mixed with 3 ml of top agar (0.7% agar) and overlaid onto the plates. After overnight incubation at 37° C., the plates were examined for different degrees of inhibition. Inhibition degrees produced by the test compound are expressed as Minimum Inhibitory Concentrations (MICs), defined as the lowest concentration of a compound that inhibit visible growth of bacteria. Each test was performed in duplicate vs. the reference compound Doxycycline.

SH-SY5Y cells = experiment: CellROX assay of intracellular reactive oxygen species induced by ASf; type: cell-based; conditions: 24 h
Protocol: In order to characterize the antioxidant properties of D9, its protective action on the AS-induced production of reactive oxygen species (ROS) in a cellular model was assessed. For this, SH-SY5Y cells were treated with fibrils of AS (ASf) (AS incubated 120 h at 37° C. and 600 rpm), and the reactive oxygen species produced were examined using the CellROX® Orange Reagent (Invitrogen), which undergoes oxidation by ROS to form a stable fluorescent compound.
In addition, cells were also treated with doxycycline 10 μM+7 μM ASf (ASf+Doxy) as a positive control, and 10 μM doxycycline alone (Doxy). All conditions were incubated 24 h at 37° C. and 5% CO2. […] Fluorescent images of randomly chosen fields were acquired with identical acquisition parameters using a Zeiss Axio Vert.A1 inverted fluorescence microscope.

Chain of D1 dopamine receptor (P21728 whole entry, the tested form may be a part): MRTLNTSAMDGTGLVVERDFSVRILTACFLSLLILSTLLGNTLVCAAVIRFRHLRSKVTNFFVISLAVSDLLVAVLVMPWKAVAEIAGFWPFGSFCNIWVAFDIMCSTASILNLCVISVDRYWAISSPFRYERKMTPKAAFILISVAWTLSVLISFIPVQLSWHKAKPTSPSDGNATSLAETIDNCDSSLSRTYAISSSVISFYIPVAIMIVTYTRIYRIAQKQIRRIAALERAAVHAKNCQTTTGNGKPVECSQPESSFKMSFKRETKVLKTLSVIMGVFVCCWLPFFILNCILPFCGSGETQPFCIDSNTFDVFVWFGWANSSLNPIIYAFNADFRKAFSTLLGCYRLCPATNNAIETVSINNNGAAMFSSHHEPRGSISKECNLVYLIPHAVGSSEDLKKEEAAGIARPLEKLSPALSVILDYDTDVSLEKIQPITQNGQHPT
Chain of D2 dopamine receptor (P14416 whole entry): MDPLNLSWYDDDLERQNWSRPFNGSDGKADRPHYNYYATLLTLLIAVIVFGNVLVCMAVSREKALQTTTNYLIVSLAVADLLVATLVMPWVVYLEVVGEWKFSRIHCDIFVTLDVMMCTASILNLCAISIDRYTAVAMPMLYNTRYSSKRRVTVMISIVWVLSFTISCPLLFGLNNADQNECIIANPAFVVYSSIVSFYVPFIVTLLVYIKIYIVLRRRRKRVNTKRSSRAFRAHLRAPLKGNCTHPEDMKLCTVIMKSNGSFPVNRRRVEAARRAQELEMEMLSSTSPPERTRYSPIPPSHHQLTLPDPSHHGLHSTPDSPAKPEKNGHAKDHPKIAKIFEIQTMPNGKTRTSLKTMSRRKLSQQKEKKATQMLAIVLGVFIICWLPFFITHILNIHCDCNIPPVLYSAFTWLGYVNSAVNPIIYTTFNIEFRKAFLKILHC

Compound: C[C@H]1c2ccc(NC(=O)CCC(=O)NCCc3ccc(O)c(O)c3)c(O)c2C(=O)C2=C(O)[C@]3(O)C(=O)C(C(N)=O)=C(O)CC3[C@@H](O)C21 (stereo partly shown) [Pegasus]
- Localization and distribution of Cytochrome C-tGFP (marker of apoptosis) [1]: no differences in localization and distribution of Cytochrome C-tGFP
- Cytotoxicity (relative cell viability, MTT) (Bv2 cells): did not induce cell toxicity
- EC50 (D2 dopamine receptor): 11.3 µM
- EC50 (D1 dopamine receptor): 2.8 µM
- MIC (E. coli DH5α): no antibiotic activity at the concentrations tested
- Intracellular ROS induced by ASf in presence of compound (SH-SY5Y cells; 7 μM ASf + 10 μM compound): no increase in ROS production was observed
- Intracellular ROS induced by compound alone (SH-SY5Y cells; human, 10 μM): neither the presence of D9 nor doxycycline induced intracellular ROS
